Where two headings read alike, the source gives them in different places.

Assay [1] deals with human mononuclear cells (PBMC) stimulated with staphylococcal enterotoxin B (SEB). Put plainly: cells. It counts as cell-based.
Assay [2] deals with T1, LFA-1 (Homo sapiens, UniProt P20701).
T1 construct: >90% occupancy of LFA-1 with efalizumab led to a greater than 50% clinical improvement in PASI score in a clinical trial; host or cells: leukocytes of psoriasis patients (in vivo)
To be noted: >90% occupancy of LFA-1; cited from earlier work.

T1 sequence (P20701 26-1170): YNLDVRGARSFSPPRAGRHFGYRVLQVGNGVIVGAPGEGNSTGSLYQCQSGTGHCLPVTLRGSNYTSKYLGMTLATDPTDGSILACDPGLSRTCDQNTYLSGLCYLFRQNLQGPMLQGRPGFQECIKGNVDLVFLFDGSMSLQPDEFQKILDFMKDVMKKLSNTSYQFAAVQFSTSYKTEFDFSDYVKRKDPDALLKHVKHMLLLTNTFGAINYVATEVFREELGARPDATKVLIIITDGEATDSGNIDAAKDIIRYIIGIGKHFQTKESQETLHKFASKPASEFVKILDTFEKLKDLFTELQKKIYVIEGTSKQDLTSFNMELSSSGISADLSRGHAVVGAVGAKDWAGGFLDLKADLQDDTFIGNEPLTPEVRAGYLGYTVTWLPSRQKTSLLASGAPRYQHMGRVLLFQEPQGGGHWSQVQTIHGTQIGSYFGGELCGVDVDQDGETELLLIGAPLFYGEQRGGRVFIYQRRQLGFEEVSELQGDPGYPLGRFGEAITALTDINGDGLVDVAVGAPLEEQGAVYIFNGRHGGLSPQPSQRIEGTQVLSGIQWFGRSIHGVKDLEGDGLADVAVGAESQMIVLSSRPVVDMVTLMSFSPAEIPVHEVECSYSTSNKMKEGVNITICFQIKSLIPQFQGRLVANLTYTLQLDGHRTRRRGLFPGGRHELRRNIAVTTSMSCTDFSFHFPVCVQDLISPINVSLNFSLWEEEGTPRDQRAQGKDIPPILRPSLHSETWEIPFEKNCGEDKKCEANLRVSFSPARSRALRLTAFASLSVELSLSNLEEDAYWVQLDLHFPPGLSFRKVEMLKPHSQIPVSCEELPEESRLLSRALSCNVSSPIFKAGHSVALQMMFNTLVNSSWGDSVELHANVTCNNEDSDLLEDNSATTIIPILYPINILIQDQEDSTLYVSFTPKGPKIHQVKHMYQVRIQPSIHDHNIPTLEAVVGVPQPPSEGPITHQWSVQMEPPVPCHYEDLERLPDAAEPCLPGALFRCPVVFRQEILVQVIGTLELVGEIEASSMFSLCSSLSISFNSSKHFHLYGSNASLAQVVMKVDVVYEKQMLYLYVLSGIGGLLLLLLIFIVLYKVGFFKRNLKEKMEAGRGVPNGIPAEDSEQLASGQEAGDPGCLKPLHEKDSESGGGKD
T1 sequence (P05107 23-769 partner): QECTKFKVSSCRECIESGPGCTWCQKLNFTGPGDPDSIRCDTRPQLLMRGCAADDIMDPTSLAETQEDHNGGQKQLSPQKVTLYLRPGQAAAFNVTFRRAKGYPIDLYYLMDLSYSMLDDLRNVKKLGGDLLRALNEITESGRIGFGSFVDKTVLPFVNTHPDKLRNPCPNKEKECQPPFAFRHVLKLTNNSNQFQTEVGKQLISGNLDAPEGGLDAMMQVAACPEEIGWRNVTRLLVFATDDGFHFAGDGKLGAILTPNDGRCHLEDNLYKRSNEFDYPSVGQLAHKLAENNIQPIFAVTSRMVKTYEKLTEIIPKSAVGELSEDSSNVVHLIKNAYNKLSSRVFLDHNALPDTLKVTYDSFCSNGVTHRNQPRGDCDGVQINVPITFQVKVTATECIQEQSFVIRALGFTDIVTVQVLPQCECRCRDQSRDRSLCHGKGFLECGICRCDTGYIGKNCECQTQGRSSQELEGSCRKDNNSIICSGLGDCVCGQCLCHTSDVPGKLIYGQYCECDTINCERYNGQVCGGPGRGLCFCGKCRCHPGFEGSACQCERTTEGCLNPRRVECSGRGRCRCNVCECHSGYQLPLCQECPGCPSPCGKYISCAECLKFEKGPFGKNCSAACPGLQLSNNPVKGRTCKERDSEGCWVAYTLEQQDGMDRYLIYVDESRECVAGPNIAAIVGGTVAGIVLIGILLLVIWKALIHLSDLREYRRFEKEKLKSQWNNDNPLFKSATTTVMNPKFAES

As to `O=C(NC(Cc1cc(=O)[nH]c2ccccc12)C(=O)O)c1ccc(Cl)cc1` (centres unmarked) [Rebamipide], the EC50 in assay [1] (read-out: EC50 Cytokine Release GM-CSF), in assay [1] (read-out: EC50 Cytokine Release IFNγ), in assay [1] (read-out: EC50 Cytokine Release IL-1α), in assay [1] (read-out: EC50 Cytokine Release IL-1β), in assay [1] (read-out: EC50 Cytokine Release IL-2) and in assay [1] (read-out: EC50 Cytokine Release IL-3) was > 1000 µM throughout. The EC50 in assay [1] (read-out: EC50 Cytokine Release IL-4), in assay [1] (read-out: EC50 Cytokine Release IL-5), in assay [1] (read-out: EC50 Cytokine Release IL-6), in assay [1] (read-out: EC50 Cytokine Release IL-10), in assay [1] (read-out: EC50 Cytokine Release IL-12p40) and in assay [1] (read-out: EC50 Cytokine Release IL-13) was > 1000 µM each time. In addition, the EC50 in assay [1] (read-out: EC50 Cytokine Release IP-10), in assay [1] (read-out: EC50 Cytokine Release MCP-1), in assay [1] (read-out: EC50 Cytokine Release MIP-1α) and in assay [1] (read-out: EC50 Cytokine Release TNF-α) was > 1000 µM each time.

Turning to “efalizumab: anti-LFA-1 (CD11a) antibody evaluated in plaque psoriasis”, the “clinical improvement in PASI score” value in assay [2] is on record as “greater than 50%”.

In general, EC50 refers to the concentration at which the effect is half-maximal.

The record behind these values is patent US20140079784A1, “AEROSOLIZED LFA-1 ANTAGONISTS FOR USE IN LOCALIZED TREATMENT OF IMMUNE RELATED DISORDERS” (SARCODE BIOSCIENCE INC., priority 2008, published 2014).
